99 compounds from ChEMBL document CHEMBL3507680, “University of Dundee, Gates Library screen for HepG2 cell viability” can be followed below.

This data set can be described thus: Human HepG2 cell viability assay in 384 well format. It counts as toxicity, cell-based. The arrangement: dose 125 nL, time 70.5 hour; concentration not given beside the values. Particulars: HepG2 cells, read-out: Inhibition.
Turning to `O=C1NC2(CCc3ccccc31)CCN(C(=O)c1cccnc1)C2` (centres undefined), the cytotoxicity at 70.5 h was -13%.
With `CN(CC1CCCCO1)c1nc(-c2cccnc2)nc2c1CCNC2` (centres undefined) the figure was -17.5%; with `CN(CCCc1cnn(C)c1)C(=O)C1CCC(=O)N(C2CCCC2)C1` (centres undefined), -0.586%; with `CN1CCCc2cc(CNC(=O)c3ccc(NC4CC4)nc3)ccc21`, -3.79%.
Turning to `CCN1CCCC(CN(C)c2nccc(-c3ccc(C)nc3C)n2)C1` (centres undefined), the cytotoxicity at 70.5 h is -1.39%.
For the compound `O=C(Nc1cnc(Oc2ccccc2F)nc1)C1CC1`, the cytotoxicity at 70.5 h is -3.71%.
With `CNC(=O)CN1CCCC12CCN(C(=O)c1cccc(F)c1)CC2` the figure was 24.1%.
For `CC(C)n1ncc2cc(NC(=O)N3CCC(CO)CC3)cnc21`, the cytotoxicity at 70.5 h came to 3.41%.
In the case of `CCc1nc(C2CCCN(c3nccc(C)n3)C2)no1` (centres undefined) it was -12.5%; in that of `COc1ccccc1CN1CC(OC)CN(C(=O)OCC(C)C)CC1=O` (centres undefined), -3.02%; in that of `CCC(C)(CC(=O)OC)NCc1nc(C)no1` (centres undefined), 28.3%.
With `CN(C)c1cc(C2CCCN2Cc2ccccc2OCC(=O)O)ccn1` (centres undefined) the figure was -6.83%; with `Cc1ncsc1C(=O)N1CCCC(c2noc(C(C)C)n2)C1` (centres undefined), 0.861%; with `NCCn1nc(C2CCN(Cc3ccccc3Cl)C2)c2nccnc21` (centres undefined), -4.18%.
Take `CCCn1ccnc1-c1cccc(NC(=O)[C@H]2CCC(=O)N2)c1`: the cytotoxicity at 70.5 h came out at 1.18%.
In the case of `Cc1cnn(CCCNC(=O)NCCS(=O)(=O)Nc2ccccc2)c1` it was -25.5%; in that of `O=C(CCc1cc(Cl)no1)N1CCCCC1CCN1CCOCC1` (centres undefined), -2.5%.
In the case of `Cc1cc(C)cc(CN2C[C@H]3COC[C@H](N4CCN(C)CC4)[C@H]3C2)c1` it was -6.19%; in that of `O=C(c1cc(=O)[nH]c(=O)[nH]1)N1CCCC(CO)(CC2CC2)C1` (centres undefined), -10.5%.
In the case of `Cc1noc(C2CCCCN2C(=O)NCc2ccco2)n1` (centres undefined) it was -19.9%; in that of `CCC[C@H]1CN(S(C)(=O)=O)C[C@@H]1NC(=O)c1ccc(COC)cc1`, 0.361%.
On to `CCCc1cc(=O)[nH]c(-c2ccccc2CN(C)CCn2cccn2)n1`, for which the cytotoxicity at 70.5 h stood at 5.03%.
Turning to `CCn1cc(CN2CCCN(C(=O)CCN3CCCC3=O)CC2)cn1`, the cytotoxicity at 70.5 h is -3.66%.
With `Cc1nc(CNC(=O)N2CCCC(c3ncc[nH]3)C2)sc1C` (centres undefined) the figure was -5.05%; with `CCCNC(=O)c1nn(CC)cc1NC(=O)C(C)n1ncc(Cl)c1C` (centres undefined), -5.37%.
With `Cc1n[nH]c(CN2CCN(Cc3ccccc3)[C@@H]3CS(=O)(=O)C[C@@H]32)n1` the figure was 0.0797%; with `Cn1ccc(CN2CCC(COC3CCCC3)CC2)cc1=O`, -11%.
Regarding `CC(O)CN1CCC(CN(C)C(=O)NC2CC2)CC1` (centres undefined), the cytotoxicity at 70.5 h is -1.96%.
With `Cc1ccc(CNC(=O)NCc2ccco2)s1` the figure was -24.6%; with `CC(=O)N1C[C@H](NS(=O)(=O)Cc2cccc(Cl)c2)[C@@H](C(C)C)C1`, -6.96%.
Consider `O=C(c1cc(-c2ccn(CC3CC3)n2)n2ccccc12)N1CCCO1`, for which the cytotoxicity at 70.5 h is -3.08%.
In the case of `O=c1ccc2c(n1CC1CC1)CCN(c1ncccn1)CC2` it was -4.49%.
With `COCCN1CC(C(=O)NCc2cccnc2-n2cccn2)CC1=O` (centres undefined) the figure was -7.22%; with `CN(C)C1CCN(C(=O)c2cc(-c3ccn(C)n3)n3ccccc23)CC1`, -6.13%; with `CCN(Cc1ccncc1)CC1(C)Cc2c(N)nc(N)nc2O1` (centres undefined), -2.81%.
In the case of `Cc1cccnc1CC(C)N(C)C(=O)c1cccs1` (centres undefined), the cytotoxicity at 70.5 h is -10.3%.
On to `CC(=O)NCc1ccc(C(=O)N2CCCC2c2cnn(C)c2)s1` (centres undefined), for which the cytotoxicity at 70.5 h was -0.6%.
In the case of `CC1=C(C#N)C(=O)NC(=O)/C1=C\c1c(C)nn(-c2ccccc2)c1O` it was -2.78%.
Take `Cc1n[nH]cc1C(=O)N1CCCC(c2cccc(-n3ccnc3)n2)C1` (centres undefined): the cytotoxicity at 70.5 h is -7.73%.
In the case of `CC(O)c1cn(CC2CCN(C(=O)CN(C)C(C)C)CC2)nn1` (centres undefined) it was -6.36%; in that of `O=C(CCCN1CCCCC1)N1CCN(C(=O)c2nc[nH]n2)CC1`, -3.03%.
Regarding `Cc1cccc(C)c1OCC(=O)N1CCOCC1c1ncon1` (centres undefined), the cytotoxicity at 70.5 h is -2.55%.
As for `CN(C)C(=O)N1CCCC2(CCN(Cc3ccc(Cl)c(F)c3)C2)C1` (centres undefined), the cytotoxicity at 70.5 h was -6.53%.
In the case of `CCn1ccc(NC(=O)CN2C(=O)C(C)(C)c3ccccc32)n1` it was -11.1%; in that of `CCN1CCN(C(=O)COc2ccc(CN(C)S(C)(=O)=O)cc2)CC1`, -3.87%; in that of `COCC(=O)N(C)Cc1cccc(Cl)c1`, 38.1%.
Regarding `Cc1nc(CNC(=O)N(C)Cc2cnn(C)c2)cs1`, the cytotoxicity at 70.5 h worked out at 9.64%.
`O=C(c1cscn1)N1CCC2(CC1)CN(c1ccccn1)CCO2`: the cytotoxicity at 70.5 h was -9.14%.
In the case of `CNc1nc2c(c(C(=O)N3CCCC3)n1)CN(C(=O)c1cccs1)CC2` it was 5.33%; in that of `NC(=O)NC(=O)CN1CCN(CC2CC2)c2ccccc21`, 8.16%; in that of `N#Cc1cccc(N2CCCC3(C2)CN(c2ncccn2)CCO3)n1` (centres undefined), -6.81%.
With `CC(C)COCC(NC(=O)c1ccccn1)c1ccco1` (centres undefined) the figure was -10.5%; with `O=C(CCCn1ccnc1)N1CCC2(CC1)[C@H](O)C[C@@H]2OCCO`, -7.46%.
With `O=C(NC1CC1)c1ccc(SCc2cscn2)cc1` the figure was -9.79%.
As for `Cc1nn(C)c2c(=O)n(CC(=O)NCCC3=CCCCC3)ccc12`, the cytotoxicity at 70.5 h was -1.87%.
`Cn1cc(CN2CC[C@@H]3O[C@H](C(=O)N4CCOCC4)C[C@@H]32)cn1`: the cytotoxicity at 70.5 h is -5.63%.
In the case of `CCn1c(CN2CCC(O)(c3ccc4c(c3)OCO4)CC2)cnc1SC` it was 1.92%; in that of `Cn1nc(C2CN(C(=O)c3cccnc3)C2)c2nccnc21`, -3.75%.
In the case of `FC(F)Oc1ccccc1CN1CCCC(c2nccn2CC2CC2)C1` (centres undefined) it was -1.02%; in that of `COc1cccc(OCC(=O)NCc2ccc3[nH]c(=O)[nH]c3c2)c1`, -13.7%; in that of `c1ccc2[nH]c(C3CCN(Cc4nc(C5CC5)no4)CC3)cc2c1`, -1.32%.
Take `O=C(NCC1CCC2(CCNCC2)O1)C1CC1` (centres undefined): the cytotoxicity at 70.5 h was 2.18%.
In the case of `Cc1cn2c(n1)CCC(NC(=O)c1ccc(CS(C)(=O)=O)o1)C2` (centres undefined) it was -2.86%; in that of `CC(C)CN1CCC2(CCN(Cc3ccsc3)CC2)C1=O`, 6.07%; in that of `CN1CC[C@H](c2nnc(Cc3c[nH]c4ccccc34)o2)C1`, -1.52%.
On to `O=C(Cc1noc(C(=O)NCCO)n1)Nc1cccc(C(F)(F)F)c1`, for which the cytotoxicity at 70.5 h was -22.4%.
On to `O=C(NCc1cc[nH]n1)NCC(O)c1ccc(F)cc1F` (centres undefined), for which the cytotoxicity at 70.5 h was -9.36%.
As for `COc1nonc1NCn1nc(C)cc1C`, the cytotoxicity at 70.5 h came to 51.2%.
In the case of `O=C(NCCc1ccncc1)c1ccc(S(=O)(=O)NC2CCC2)cc1` it was -9.51%.
In the case of `CC(=O)NC1(C(=O)N2CCCN(c3cccnn3)CC2)CCCCC1` it was -5.29%; in that of `Cc1n[nH]c(C)c1CC(=O)N1CCN(C)C2(CCNC(=O)CC2)C1` (centres undefined), -4.03%.
With `COc1ccc(C(NCc2ccc(C#N)cc2)C2CC2)cc1` (centres undefined) the figure was -7.6%.
As to `COc1cc(CNCCC(N)=O)c2c(c1)CC(C)O2` (centres undefined), the cytotoxicity at 70.5 h is -0.966%.
In the case of `CCn1c(C)nnc1CN(C)C1CCN(CCn2cccn2)C1` (centres undefined) it was 7.42%.
`CCOc1cc(CNCCCn2ccnc2)cc(Cl)c1OC`: the cytotoxicity at 70.5 h was found to be 3.61%.
As for `O=C(CCc1ccc(Cl)cc1)N[C@@H]1CC[C@@H](O)[C@@H]1O`, the cytotoxicity at 70.5 h was -6.03%.
As for `Cc1cc(-c2cnc(N3CCOCC3)nc2-c2cccnc2C)on1`, the cytotoxicity at 70.5 h was -4.33%.
With `COc1ccc(OCCN(C)C(=O)c2ccc(OC)cc2O)cc1` the figure was -9.58%; with `NC(=O)N1CCCC(C(=O)NCCOc2ccc(F)c(F)c2)C1` (centres undefined), -12.7%.
With `O=C(CCc1cc2n(n1)CCCNC2)N1CCN(C2CCCC2)C(=O)C1` the figure was -7.76%.
With `Cc1nc(CN2CCCC(N(C)Cc3nccn3C)C2)no1` (centres undefined) the figure was 21.6%; with `CS(=O)(=O)CCN1C[C@H](NC(=O)c2cnc(O)cn2)[C@@H](C2CC2)C1`, 11.1%; with `COc1c(CNCC(O)c2cccc(F)c2)c(C)nn1C` (centres undefined), -9.63%.
For the compound `Cc1cccc(C2(O)CCN(Cc3ccccc3N3CCCC3)CC2)c1`, the cytotoxicity at 70.5 h came out at 16.9%.
In the case of `COCCNC(=O)c1ccc2ccc(N(C)CC3CC3)n2c1` it was -5.92%.
With `CC(C)=CCC1(C(=O)O)CCCN(c2ccnc(N)n2)C1` (centres undefined) the figure was 17%.
Turning to `Cc1noc(C)c1-c1cc(C2CCNCC2)ccn1`, the cytotoxicity at 70.5 h was found to be 3.08%.
As for `Cc1cc(=O)n2ncnc2n1CC(O)COCc1ccccc1Cl` (centres undefined), the cytotoxicity at 70.5 h is -9.61%.
With `Cc1cccc(N(C)Cc2cc(=O)n3oc(C)cc3n2)c1` the figure was 3.47%; with `CCOc1ccnc(N2CCN(C(=O)c3ccc(OC)cc3)CC2)n1`, -12.5%; with `c1cc(N2CCC(CN3CCOCC3)CC2)c2sccc2n1`, 0.228%.
Turning to `CC(C)NC(=O)[C@]12COC[C@H]1CN(Cc1cnn(C)c1)C2`, the cytotoxicity at 70.5 h was -4.74%.
With `Cc1ccccc1CNC(=O)CN1CCCC(Cc2nccn2C)C1` (centres undefined) the figure was -1.13%; with `CCc1nc2ccccc2n1C(CC)C(=O)N(C)Cc1noc(C)n1` (centres undefined), -19.8%.
In the case of `CSCC(=O)NC(Cc1ccc(C)cc1)c1ccccn1` (centres undefined) it was 0.833%.
Turning to `Cc1nc(CN(C)S(=O)(=O)c2ccccc2C(F)(F)F)no1`, the cytotoxicity at 70.5 h is -5.33%.
In the case of `COCCN1C[C@H]2CN(C(=O)NC(C)C)CCN2C1=O` it was -3.98%; in that of `COc1ccccc1OCC(=O)NS(=O)(=O)c1ccc(Br)s1`, -4.66%.
In the case of `COC(=O)CCNC(=O)c1coc(COc2ccc(F)cc2)n1` it was -5.99%.
